We go through 11 compounds from ChEMBL document CHEMBL3286153, “Evaluation of the antiviral efficacy of bis[1,2]dithiolo[1,4]thiazines and bis[1,2]dithiolopyrrole derivatives against the nucelocapsid protein of the Feline Immunodeficiency Virus (FIV) as a model for HIV infection” (Bioorg Med Chem Lett, 2014).

pEC50: −log10 of the molar value. A value given as a limit tells only on which side of the number the result lay.

A short description of data set [1]: Cytotoxicity against cat CRFK cells assessed as cell viability at 10 uM after 24 hrs by MTT assay. The class given is cell-based, Felis catus. The settings on record: read-out: Activity.
The nature of data set [2]: Cytotoxicity against cat CRFK cells assessed as cell viability after 7 days by MTT assay. The settings on record: for CC50 at 168 h: CRFK cells; for CC50: crfk, 168 h. It is filed as cell-based, Felis catus. Background: Formazan colour is commonly taken as a measure of viable cells.
Data set [3] relates to Feline immunodeficiency virus. The experiment in a line: Antiviral activity against Feline immunodeficiency virus infected in cat FL-4 cells assessed as viral RNA production by RT-qPCR. The class given is functional, organism-based. The following applies: for pEC50: Feline immunodeficiency virus, FL-4, read-out: EC50; for EC50: fl-4. For orientation: Quantitative PCR measures a nucleic acid by following its amplification.

Data set [4] is described as follows: Therapeutic index, ratio of CC50 for cat CRFK cells to EC50 for Feline immunodeficiency virus infected in cat FL-4 cells. The settings on record: for selectivity ratio: read-out: Ratio CC50/EC50; for Ratio CC50/EC50: crfk. The class given is cell-based.

In general, CC50 refers to the concentration that lowers cell viability or growth by half. Broadly, the pEC50 is the EC50 on a negative log10 scale, so that one unit is a factor of ten. On to `CCN1c2c(ssc2=O)Sc2ssc(=S)c21`, for which the viability at 24 h, 10 µM in data set [1] is more than 100%. Besides, the CC50 at 168 h in data set [2] is more than 10000 nM. For the same compound, in data set [3], the pEC50 was 6.46. The selectivity ratio in data set [4] was more than 29.

For the compound `O=C(O)CCN1c2c(ssc2=S)Sc2ssc(=S)c21`, in data set [1], the viability at 24 h, 10 µM was 97.2%. The half-maximal cytotoxic concentration (CC50) at 168 h in data set [2] was found to be 1720 nM. Moreover, the pEC50 in data set [3] is 6.42. Moreover, the selectivity ratio in data set [4] came to 4.5.

Take `CCOC(=O)CCn1c2c(=O)ssc2c2ssc(=O)c21`: the viability at 24 h, 10 µM in data set [1] came to 78.2%. For the same compound, the CC50 result in data set [2] is “ND(toxic)”. Moreover, the EC50 entry in data set [3] is given as “ND(toxic)”. The “Ratio CC50/EC50” value in data set [4] is recorded as “ND(toxic)”.

On to `CCOC(=O)CCN1c2c(ssc2=O)Sc2ssc(=O)c21`, for which the viability at 24 h, 10 µM in data set [1] worked out at 76.8%. For the same compound, in data set [2], the CC50 at 168 h came to 56 nM. Moreover, in data set [3], the pEC50 is 7.79. Further, the selectivity ratio in data set [4] amounted to 3.5.

For `Cc1nnc(C(=O)NC(C)(C)c2nc(C(=O)NCc3ccc(F)cc3)c(O)c(=O)n2C)o1` [RALTEGRAVIR], in data set [1], the viability at 24 h, 10 µM was more than 100%. The CC50 at 168 h in data set [2] is more than 100000 nM. Further, the pEC50 in data set [3] is 8.00. The selectivity ratio in data set [4] is more than 100000.

Consider `CC(=O)OCCN1c2c(ssc2=O)Sc2ssc(=O)c21`, for which the viability at 24 h, 10 µM in data set [1] came out at 39.2%. In addition, the CC50 result in data set [2] is listed as “ND(toxic)”. Moreover, the EC50 result in data set [3] is “ND(toxic)”. Further, in data set [4], the “Ratio CC50/EC50” value was “ND(toxic)”.

Regarding `Cc1cn([C@H]2C[C@H](N=[N+]=[N-])[C@@H](CO)O2)c(=O)[nH]c1=O` [ZIDOVUDINE], the viability at 24 h, 10 µM in data set [1] is more than 100%. Moreover, the 50% cytotoxic concentration (CC50) at 168 h in data set [2] was more than 100000 nM. The pEC50 in data set [3] was 5.27. For the same compound, the selectivity ratio in data set [4] was more than 18.8.

In the case of `CCN1c2c(ssc2=O)Sc2ssc(=O)c21`, the viability at 24 h, 10 µM in data set [1] turned out to be 40.2%. In data set [2], the CC50 entry is given as “ND(toxic)”. Also, the EC50 entry in data set [3] is given as “ND(toxic)”. Moreover, the “Ratio CC50/EC50” value in data set [4] was “ND(toxic)”.

Consider `CCOC(=O)CCN1c2c(ssc2=O)Sc2ssc(=S)c21`, for which the viability at 24 h, 10 µM in data set [1] came to 91.2%. Further, in data set [2], the CC50 at 168 h is 2270 nM. The pEC50 in data set [3] is 6.19. Further, the selectivity ratio in data set [4] is 3.5.

Take `CCn1c2c(=S)ssc2c2ssc(=S)c21`: the viability at 24 h, 10 µM in data set [1] is more than 100%. For the same compound, the CC50 at 168 h in data set [2] was 20100 nM. Besides, the pEC50 in data set [3] is 6.18. Besides, the selectivity ratio in data set [4] stood at 30.6.

As to `CCN1c2c(ssc2=S)Sc2ssc(=S)c21`, in data set [1], the viability at 24 h, 10 µM is 98.8%. Moreover, the CC50 at 168 h in data set [2] amounted to 31 nM. For the same compound, the negative-log EC50 (pEC50) in data set [3] is more than 9.00. The selectivity ratio in data set [4] was more than 31.
